Data as given in US11963985B2, “Coral composite extract, composition including the same and method of producing the same” (National Sun Yat-Sen University, priority 2018, dated 2024).

Assay: partition coefficient (log P) of EXC-B
Format: physicochemical
Protocol: Next, as STEP 103 depicts, the crude extraction step is performed on the coral staring material to obtain a crude extract, in which a first solvent is applied. In one embodiment, there is no limitation of the kind of the first solvent. However, the one having a polarity index P′ value closer to a polarity index P′ value of the coral composite extract is the better. For example, a partition coefficient (log P) of EXC-B is about 0.9 and an octanol-water partition coefficient (Clog P) of EXC-B is about 3.5568. Therefore, the polarity index P′ value of the first solvent can be 0.1 to 6.0, but 1.0 to 5.4 is better.

Substance: excavatolide B [EXC-B]
- partition coefficient (log P): about 0.9
